These are literature values, as cited in patent publication US20150079169A1 (POZEN INC., priority 2011, published 2015).

The subject of data set [1] is human plasma proteins.
The conditions of data set [2]: clopidogrel therapy.
The conditions of data set [3]: for major cardiovascular events (ischaemic stroke, MI, or vascular death), average rate per year: 19,185 people with history of MI, stroke, or peripheral arterial disease, clopidogrel 75 mg daily versus aspirin 325 mg daily.
[4] abbreviates: oral dose of 14C-labeled clopidogrel in humans, five days after dosing.
[5] abbreviates: repeated oral doses of 75 mg clopidogrel (base).

As to `COC(=O)[C@H](c1ccccc1Cl)N1CCc2sccc2C1` [clopidogrel bisulfate], the “effect of administration with meals on bioavailability of clopidogrel” value (assessed by pharmacokinetics of the main circulating metabolite) is listed as “did not significantly modify”.
With `O=C(O)[C@H](c1ccccc1Cl)N1CCc2sccc2C1` [main circulating metabolite], the “reversible binding in vitro to human plasma proteins” value in data set [1] is recorded as 94%.
Take `COC(=O)[C@H](c1ccccc1Cl)N1CCc2sccc2C1` [clopidogrel]: the “incidence of gastrointestinal hemorrhage” value in data set [2] was 2.0 % annually. Besides, in data set [3] (95% CI 0.30% to 16.5%, P=0.04), the “RRR of major cardiovascular events versus aspirin” value was 8.7%. Also, the “OR for cardiovascular events compared with aspirin” value in data set [3] (95% CI 0.84 to 0.98) was 0.91. For the same molecule, the “major cardiovascular events (ischaemic stroke, MI, or vascular death), average rate per year” value in data set [3] is listed as 5%. In data set [3] (patients with variants in cytochrome P-450 2C19), the “greater risk for major adverse cardiovascular events in patients with CYP2C19 variants” value is recorded as 3.58 fold. For the same molecule, under “based on urinary excretion of clopidogrel-related metabolites”, the Absorption result is reported as “at least 50%”. Besides, where the note is “in vivo”, the “elimination half-life of the active metabolite” value is recorded as “about eight hours” and the “time of peak plasma levels” value was 30 to 60 min. Under setting [4], the “excreted in the feces” value is given as “approximately 46%” and the “excreted in the urine” value is recorded as “approximately 50%”. For the same molecule, where the note is “repeated 75 mg oral doses, beyond two hours after dosing”, the “plasma concentrations of the parent compound (below the quantification limit)” value was under 0.258 ng/mL. Also, under setting [5], the “peak plasma levels of the main circulating metabolite” value is “approx. 3 mg/L” and the “time of peak plasma levels of the main circulating metabolite” value is listed as “approximately one hour after dosing”. Besides, in data set [1], the “reversible binding in vitro to human plasma proteins” value is listed as 98%.
For the molecule `CC(=O)Oc1ccccc1C(=O)O` [aspirin], in data set [3], the “major cardiovascular events (ischaemic stroke, MI, or vascular death), average rate per year” value is recorded as 6%. Besides, the “reduction of incidence of non-fatal myocardial infarction, non-fatal stroke and vascular death” value in data set [3] (people with known vascular disease) is recorded as “about a quarter”.
